Values joined by “and” are separate entries in the source; they are usually repeats but may differ in a detail not shown here. Equal values may be shown once. One block for each compound: values may come before it.
Tested on: 521955-158-R2-J5-PDC complex spheroids, viability
Assay: Anticancer human tumor 521955-158-R2-J5-PDC patient-derived pancreatic carcinoma cell line growth inhibition [RAS]
Conditions: for viability, T/C: stronger effect = lower value
Summary of the method: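 Multi-cell-type spheroids: tumor cells plus HUVEC endothelial cells and mesenchymal stem cells. RAS-pathway inhibitors were combined with targeted agents, each dosed in half-log steps down from clinical Cmax, or from 10 microM when Cmax was unknown.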
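Note: compound exposure lasted seven days before the viability read.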
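Throughout, for viability, T/C: spheroids also contain HUVEC endothelial cells and mesenchymal stem cells as stroma.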

- IC50 (curve of compound): 136 nM [middle of 4 runs]
Compound: CC(Nc1ccc2c(c1)OCCn1cc(N3C(=O)OCC3C(F)F)nc1-2)C(N)=O (centres undefined)
- viability, T/C (compound 0.1 µM): 57.5% [middle of 4 runs]
- viability, T/C (compound 0.316 µM): 41.1% [middle of 4 runs]
- viability, T/C (compound 1 µM): 31% [middle of 4 runs]
- viability, T/C (compound 10 µM): 23.5% [middle of 4 runs]

- IC50 (curve of first compound, second compound 0.00316 µM): 1.32 µM
- IC50 (curve of first compound, second compound 0.01 µM): 0.419 µM
- IC50 (curve of first compound, second compound 0.0316 µM): 0.634 µM
- IC50 (curve of first compound, second compound 0.1 µM): 0.833 µM
- IC50 (curve of first compound, second compound 0.316 µM): 0.261 µM
- IC50 (curve of first compound, second compound 1 µM): 0.18 µM
Compound: CC(Nc1ccc2c(c1)OCCn1cc(N3C(=O)OCC3C(F)F)nc1-2)C(N)=O (centres undefined) + C=CC(=O)N1CCN(c2nc(OCC3CCCN3C)nc3c(F)c(-c4nc(N)cc(C)c4C(F)(F)F)c(Cl)cc23)C(C)C1
- viability, T/C (second compound 0.00316 µM, first compound 0.0316 µM): 66.7%
- viability, T/C (second compound 0.00316 µM, first compound 0.1 µM): 70.9%
- viability, T/C (second compound 0.00316 µM, first compound 0.316 µM): 43%
- viability, T/C (second compound 0.00316 µM, first compound 1 µM): 64.7%
- viability, T/C (second compound 0.00316 µM, first compound 3.16 µM): 38.4%
- viability, T/C (second compound 0.00316 µM, first compound 10 µM): 19.8%
- viability, T/C (second compound 0.01 µM, first compound 0.0316 µM): 64.1%
- viability, T/C (second compound 0.01 µM, first compound 0.1 µM): 58.3%
- viability, T/C (second compound 0.01 µM, first compound 0.316 µM): 43.5%
- viability, T/C (second compound 0.01 µM, first compound 1 µM): 52%
- viability, T/C (second compound 0.01 µM, first compound 3.16 µM): 35.5%
- viability, T/C (second compound 0.01 µM, first compound 10 µM): 22.9%
- viability, T/C (second compound 0.0316 µM, first compound 0.0316 µM): 56.9%
- viability, T/C (second compound 0.0316 µM, first compound 0.1 µM): 71.3%
- viability, T/C (second compound 0.0316 µM, first compound 0.316 µM): 43.5%
- viability, T/C (second compound 0.0316 µM, first compound 1 µM): 53.3%
- viability, T/C (second compound 0.0316 µM, first compound 3.16 µM): 30.4%
- viability, T/C (second compound 0.0316 µM, first compound 10 µM): 19.7%
- viability, T/C (second compound 0.1 µM, first compound 0.0316 µM): 67.3%
- viability, T/C (second compound 0.1 µM, first compound 0.1 µM): 54.8%
- viability, T/C (second compound 0.1 µM, first compound 0.316 µM): 67.6%
- viability, T/C (second compound 0.1 µM, first compound 1 µM): 45.6%
- viability, T/C (second compound 0.1 µM, first compound 3.16 µM): 28.8%
- viability, T/C (second compound 0.1 µM, first compound 10 µM): 19.4%
- viability, T/C (second compound 0.316 µM, first compound 0.0316 µM): 72.4%
- viability, T/C (second compound 0.316 µM, first compound 0.1 µM): 90.1%
- viability, T/C (second compound 0.316 µM, first compound 0.316 µM): 43.8%
- viability, T/C (second compound 0.316 µM, first compound 1 µM): 42.7%
- viability, T/C (second compound 0.316 µM, first compound 3.16 µM): 33.3%
- viability, T/C (second compound 0.316 µM, first compound 10 µM): 22.5%
- viability, T/C (second compound 1 µM, first compound 0.0316 µM): 124%
- viability, T/C (second compound 1 µM, first compound 0.1 µM): 53.4%
- viability, T/C (second compound 1 µM, first compound 0.316 µM): 48.9%
- viability, T/C (second compound 1 µM, first compound 1 µM): 35.4%
- viability, T/C (second compound 1 µM, first compound 3.16 µM): 33%
- viability, T/C (second compound 1 µM, first compound 10 µM): 19.8%

- IC50 (curve of compound): > 10 µM
Compound: Cc1nc(N2CCC3(CC2)COC(C)C3N)c(CO)nc1Sc1ccnc(N)c1Cl (centres undefined)
- viability, T/C (compound 0.0316 µM): 85.6% [middle of 4 runs]
- viability, T/C (compound 0.1 µM): 71.7% [middle of 4 runs]
- viability, T/C (compound 0.316 µM): 69.2% [middle of 4 runs]
- viability, T/C (compound 1 µM): 67.1% [middle of 4 runs]
- viability, T/C (compound 3.16 µM): 67% [middle of 4 runs]
- viability, T/C (compound 10 µM): 57% and 57.9% (2×) and 51.2%

Reference: PubChem BioAssay AID2060900 (Molecular Pharmacology Branch, DTP, NCI, 2025)
